# Test system: mice subjected to the forced swim test
# Experiment: Forced swim test on mice (duration of immobility)
# Type: in vivo, Swiss white mice
# Conditions: for Duration of immobility in seconds during the last four minutes of the six minute period: 20 minutes before test, N=4; for Activity in reducing immobility time compared with control (in words): 40 mg/Kg; for Percentage decrease in immobility times for dosage of 40 mg/kg: 40 mg/kg i.p.; for Percentage decrease in immobility times for dosage of 40 mg/kg / Percentage decrease in immobility times for dosage of 80 mg/kg: versus control; for Percentage decrease in immobility times for dosage of 80 mg/kg: 80 mg/kg i.p.
# Description: The antidepressant compounds can be used to treat depression. […] As exemplified in such technical articles as I Weiner et al., “A comparison of drug effects in latent inhibition and the forced swim test differentiates between the typical antipsychotic haloperidol, the atypical antipsychotics clozapine and olanzapine, and the antidepressants imipramine and paroxetine”, Behavioural Pharmacology (2003), Vol. 14, pp. 215-22, and D. A. Slattery et al., “Using the rat forced swim test to assess antidepressant-like activity in rodents”, Nature Protocols (2012), Vol. 7, pp. 1009-1014, the forced swim test is recognized in the pharmacological art as a standard test protocol for assessing antidepressant-like behavior induced by antidepressant compounds. The forced swimming test measures the duration of immobility of rodents exposed to the threat of drowning. Mice normally swim for 1-2 minutes and then turn helpless and become immobile. […] For example, the mouse may appear to float, i.e. almost immobile and with its head above water. The majority of known antidepressant drugs decrease the duration of immobility.
# To test for the presence of anti-depressant activity of the test compounds 3, 4, 5 and 6, the forced swim test was conducted on mice. The forced swimming test was conducted generally in accordance with the procedures set forth in David, D. J. P. et al., Psychopharmacology (2003), 166, 373-382, with the exception of a slight modification in the dimensions of the vessel used as a swimming pool. The vessel was a glass cylinder having an internal diameter of 25 cm and included water having a depth of 15 cm and a temperature of about 22±2° C. Swiss white mice weighing 25 g each were divided into 17 groups (N=4). One group served as control and the others divided for each test compound.
# The test compounds were dissolved in DMSO and administered in 4 dose levels of 10, 20, 40, 80 mg/kg, respectively, intraperitoneally (“i.p.”). The antidepressant compounds were administered to the mice 20 minutes before starting the swimming test. The control group was administered the vehicle only, in the same volume. Each mouse was allowed to stay in the swimming pool for 6 minutes. The duration of the period of immobility was measured at the beginning of the third minute of placing the mouse into the swimming pool and ended by the end of the sixth minute. In other words, the duration of immobility observed only during the last four minutes was recorded. For each test compound dose, the time of immobility was calculated and then averaged.
# [1] = 40 mg/kg i.p. in DMSO, * P<0.05 compared with control
# [2] = 80 mg/kg i.p. in DMSO, * P<0.05 compared with control
SMILES,Duration of immobility in seconds during the last four minutes of the six minute period (10 mg/kg i.p. in DMSO) [s],Duration of immobility in seconds during the last four minutes of the six minute period (20 mg/kg i.p. in DMSO) [s],"Activity in reducing immobility time compared with control (in words) (p<0.05, N=4)",Duration of immobility in seconds during the last four minutes of the six minute period [1],Percentage decrease in immobility times for dosage of 40 mg/kg [%],"Immobility time compared with the control (in words) (80 mg/kg dosage, p<0.05, N=4)",Duration of immobility in seconds during the last four minutes of the six minute period [2],Percentage decrease in immobility times for dosage of 80 mg/kg [%],"Activity in the forced swim test (in words) (all doses tested (10, 20, 40, 80 mg/kg i.p.))","Activity compared with compound 3 (in words) (80 mg/kg dosage, p<0.05, N=4)"
"O=CC1CC2c3cccc(Cl)c3C1c1c(Cl)cccc12 (stereo not shown) [Compound 3, 4,5-dichloro-9,10-dihydro-9,10-ethanoanthracene-11-carbaldehyde]",240,240,significantly active in reducing immobility time,160 ± 11* seconds,28.9,significant decrease in immobility time,65 ± 4* seconds,71.1,,
"O=CC1CC2c3c(Cl)cccc3C1c1cccc(Cl)c12 (stereo not shown) [Compound 4, 1,8-dichloro-9,10-dihydro-9,10-ethanoanthracene-11-carbaldehyde]",240,240,,240 s,,,240 s,,completely inactive,
CNCC1CC2c3cccc(Cl)c3C1c1c(Cl)cccc12 (stereo not shown) [Compound 5],240,200 ± 12.3,significantly active in reducing immobility time,140 ± 7.9* seconds,37.8,significant decrease in immobility time,36 ± 4.9* seconds,84.0,,significantly more active than compound 3
